Experimental data reported in US20100015249A1, “Antitumor agent containing 6'-amidino-2'-naphthyl 4-guanidinobenzoate or salt thereof” (priority 2005, published 2010).

Assays:
Assay type in all cases: cell-based, human
MMP-2 = assay: Western blot of MMP-2 expression; settings: MDAPanc-28 cytoplasmic fraction, 0 or 80 μg/ml FUT
Procedure: Cytoplasmic fraction was prepared from the human pancreas cancer cell line […]-28 treated with either 0 μg/ml or 80 μg/ml of FUT. Western blot was performed for the obtained cytoplasmic proteins to examine MMP-2 and MMP-9 expression. More specifically, the experiment was performed by the method described in Example 2. Rabbit polyclonal anti-MMP-2 antibody, goat polyclonal anti-MMP-9 antibody and mouse anti-B-actin antibody (Santa Cruz Biotechnology, Inc.) were used for detection.

NF-κB = assay: TNF-α-activated NF-κB after FUT treatment; settings: MDAPanc-28, FUT 80 μg/ml, TNF-α 5 ng/ml
Procedure: After the following treatment on the human pancreas cancer cell line […]-28, plasmatic compartment was prepared and Western blot was performed to examine the expression of phosphorylated FADD, caspase 8, NF-κB and IκBα. […] The same was true for IκBα expression (FIG. 7-c).

FADD = assay: Western blot of FADD phosphorylation
Procedure: The present inventors examined whether apoptosis signaling cascade is triggered with the elevation of TNFRI expression induced by FUT treatment, using caspase 8 as an indicator. Cytoplasmic fraction was prepared from the human pancreas cancer cell line MDAPanc-28 treated with various concentrations of FUT for 24 hours. Western blot was performed and subjected to the detection with anti-caspase 8 antibody (Santa Cruz Biotechnology) (FIG. 6-a). Western blot was performed to examine temporal changes in the expression of caspase 8, p-FADD, Bid and jBid under a constant concentration of FUT (80 μg/ml) at short intervals from 0 to 24 hours of treatment (FIGS. 6-b, 6-c and 6-d). Anti-FADD antibody was obtained from Santa Cruz Biotechnology and anti-Bid antibody was obtained from BD Pharmingen.
After the following treatment on the human pancreas cancer cell line MDAPanc-28, plasmatic compartment was prepared and Western blot was performed to examine the expression of phosphorylated FADD, caspase 8, NF-κB and IκBα. […] The same was true for IκBα expression (FIG. 7-c).

## N=C(N)c1ccc2cc(OC(=O)c3ccc(N=C(N)N)cc3)ccc2c1 [FUT, 6-amidino-2-naphthyl p-guanidinobenzoate dimethanesulfonate]
MMP-2
  MMP-2 expression: inhibited by FUT in a concentration-dependent manner
NF-κB
  TNF-α-activated NF-κB: inhibits TNF-α-activated NF-κB
FADD; MDAPanc-28, FUT 80 μg/ml pretreatment then TNF-α 5 ng/ml 24 hours, compared to FUT alone
  FADD phosphorylation with TNF-α stimulation: enhanced FADD phosphorylation
FADD; MDAPanc-28, FUT 80 μg/ml, 0 to 24 hours
  FADD phosphorylation: promoted FADD phosphorylation overtime
